In PubChem BioAssay (NCI):
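How tested: cells in 96-well plates exposed to compound for 48 hours at five concentrations. TGI: concentration producing complete growth inhibition.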

How the values were obtained:
Test in all cases: NCI tumour cell line growth inhibition, 48 h
ACHN renal = system: ACHN renal
BT-549 breast = system: BT-549 breast
CCRF-CEM leukemia = system: CCRF-CEM leukemia
COLO 205 colon = system: COLO 205 colon
HCT-116 colon = system: HCT-116 colon
HCT-15 colon = system: HCT-15 colon
HOP-62 NSCLC = system: HOP-62 NSCLC
HT29 colon = system: HT29 colon
IGROV1 ovarian = system: IGROV1 ovarian
M14 melanoma = system: M14 melanoma
MDA-MB-435 = system: MDA-MB-435
MDA-N = system: MDA-N
MOLT-4 leukemia = system: MOLT-4 leukemia
OVCAR-4 ovarian = system: OVCAR-4 ovarian
RXF 393 renal = system: RXF 393 renal
SF-295 CNS = system: SF-295 CNS
SNB-75 CNS = system: SNB-75 CNS
SW-620 colon = system: SW-620 colon
T-47D breast = system: T-47D breast
UO-31 renal = system: UO-31 renal

| SMILES | TGI (ACHN renal) [µM] | TGI (BT-549 breast) [µM] | TGI (CCRF-CEM leukemia) [µM] | TGI (COLO 205 colon) [µM] | TGI (HCT-116 colon) [µM] | TGI (HCT-15 colon) [µM] | TGI (HOP-62 NSCLC) [µM] | TGI (HT29 colon) [µM] | TGI (IGROV1 ovarian) [µM] | TGI (M14 melanoma) [µM] | TGI (MDA-MB-435) [µM] | TGI (MDA-N) [µM] | TGI (MOLT-4 leukemia) [µM] | TGI (OVCAR-4 ovarian) [µM] | TGI (RXF 393 renal) [µM] | TGI (SF-295 CNS) [µM] | TGI (SNB-75 CNS) [µM] | TGI (SW-620 colon) [µM] | TGI (T-47D breast) [µM] | TGI (UO-31 renal) [µM] |
| --- | --- | --- | --- | --- | --- | --- | --- | --- | --- | --- | --- | --- | --- | --- | --- | --- | --- | --- | --- | --- |
| CCN(CC)CCNc1ccc2nnn3c4ccc(O)cc4c(=O)c1c23 | 14.2 | 25.5 | 31.6 | 16.9 | 15.6 | 17.6 | 14 | 15 | 20.5 | 20.1 | 17.4 | 17.5 | 4.76 | 12.6 | 5.96 | 17.8 | 14.1 | 15.6 | 39.7 | 4.06 |
| O=C1C=C(OCCCCl)C(=O)c2c(O)ccc(O)c21 | 2.96 | 2.56 | 3.75 | 0.642 | 1.28 | 1.58 | 2.75 | 1.31 | 3.44 | 0.341 | 0.364 | 0.349 | 6.06 | 1.71 | 3.09 | 3.2 | 2.69 | 2.3 | 4.63 | 2.41 |
| CSc1ccc(/C=C2\N=C(c3ccccc3)N(c3nc4cc(C)c(C)cc4s3)C2=O)cc1 | 58.6 | 98.1 | 34.6 | > 100 | 44.5 | > 100 | 59.4 | 47.9 | 81.4 | 75.8 | 37.7 | 33.3 | > 100 | > 100 | 62.3 | > 100 | 55.2 | > 100 | > 100 | > 100 |
| CCOC(=O)C(=O)/C(=C/N1C(=O)CC(=O)NC1=S)C(=O)OCC | > 100 | > 100 | > 100 | > 100 | > 100 | > 100 | > 100 | > 100 | > 100 | > 100 | > 100 | > 100 | > 100 | > 100 | > 100 | > 100 | > 100 | > 100 | > 100 | > 100 |
| CCOC(=O)c1[nH]cc(C)c1-c1ccc2c(-c3ccccc3)nc3ccccc3n12 | 15.5 | 17.4 | 13 | 14.2 | 12.5 | 13.7 | 29.9 | 11.9 | 16.1 | 27.5 | 11.2 | 14.1 | 9.25 | 16.1 | 7.22 | 13.6 | 5.87 | 16.5 | 18.4 | 14.5 |
| COC(=O)C1=C(C)C=C(N2CCOCC2)C(C(=O)OC)C1c1ccccc1 (stereo not drawn) | > 10 | > 10 | > 10 | > 10 | > 10 | > 10 | > 10 | > 10 | > 10 | > 10 | > 10 | > 10 | > 10 | > 10 | > 10 | > 10 | > 10 | > 10 | > 10 | > 10 |
| c1ccc2c(c1)NC1(N3CCCCC3)CCCCC21 (stereo not drawn) | > 100 | > 100 | > 100 | > 100 | > 100 | > 100 | > 100 | > 100 | > 100 | > 100 | > 100 | > 100 | 85.1 | > 100 | 80.2 | > 100 | > 100 | > 100 | 78.1 | > 100 |
| COc1ccc(C2CC3(c4ccccc4)ON=C(c4ccccc4)N3c3ccccc3S2)cc1 (stereo not drawn) | > 100 | > 100 | > 100 | > 100 | > 100 | > 100 | > 100 | > 100 | > 100 | > 100 | > 100 | > 100 |  | > 100 | > 100 | > 100 | > 100 | > 100 | > 100 | > 100 |
| FC(F)(Sc1ncc[nH]1)c1nc2ccccc2o1 | > 100 | > 100 | > 100 | > 100 | > 100 | > 100 | > 100 | > 100 | > 100 | > 100 | > 100 | > 100 | > 100 | > 100 | > 100 | > 100 | > 100 | > 100 | > 100 | > 100 |
| COC(=O)[C@H](CC(C)C)Nc1c(O)c2c(c(O)c1Cl)C(=O)C=CC2=O | > 10 | > 10 | > 10 | > 10 | 5.35 | > 10 | > 10 | 9.41 | > 10 | > 10 | > 10 | > 10 | > 10 | > 10 | > 10 | > 10 | > 10 | > 10 | > 10 |  |
